These results are taken from ChEMBL document CHEMBL1143450, “Potential metabolites of a condensed 2,3-benzodiazepine derivative” (Bioorg Med Chem Lett, 2005).

Experiment [1] has as its system Mus musculus. The experiment is described as follows: Effective i.p. dose tested for muscle relaxant activity using inclined screen test in mouse (value range= 29.4-45.2 mg/kg). The note with it: ip.
For experiment [2], the system named is Mus musculus. Briefly: Effective p.o. dose tested for anticonvulsant activity using maximal electroshock seizure model in mouse (value range= 17.9-32.1 mg/kg). The note with it: po. On the technique in general: The maximal electroshock test induces tonic seizures with an electrical stimulus.
Experiment [3] is filed under the species Gallus gallus. The experiment is described as follows: Evaluated for inhibition of AMPA (5 uM) evoked spreading depression in isolated retina prepared from young chicken. It counts as functional.
Experiment [4] deals with Mus musculus. The experiment is described as follows: Effective i.p. dose tested for muscle relaxant activity using inclined screen test in mouse (value range=100-200 mg/kg). The following applies: ip.
Experiment [5] deals with Mus musculus. Briefly: Effective p.o. dose tested for anticonvulsant activity using maximal electroshock seizure model in mouse (value range=25-50 mg/kg). The following applies: po.
In experiment [6] the test system is Mus musculus. Briefly: Effective i.p. dose tested for muscle relaxant activity using inclined screen test in mouse (highest test concentration). The following applies: ip.
In experiment [7] the test system is Mus musculus. Briefly: Effective p.o. dose tested for anticonvulsant activity using maximal electroshock seizure model in mouse (highest test concentration). The note with it: po.
For experiment [8], the species on record is Gallus gallus. Briefly: Evaluated for inhibition of AMPA (5 uM) evoked spreading depression in isolated retina prepared from young chicken at 20 uM. It is filed as functional.
Experiment [9] deals with Mus musculus. Briefly: Effective p.o. dose tested for anticonvulsant activity using maximal electroshock seizure model in mouse (highest test concentration). The following applies: po. The source holds these as a separate data set.
The subject of experiment [10] is Mus musculus. The experiment is described as follows: Effective p.o. dose tested for anticonvulsant activity using maximal electroshock seizure model in mouse (SMA). The note with it: po.
Experiment [11] concerns Mus musculus. Briefly: Effective p.o. dose tested for anticonvulsant activity using maximal electroshock seizure model in mouse. The following applies: po.
For experiment [12], the system named is Mus musculus. Briefly: Effective p.o. dose tested for anticonvulsant activity using maximal electroshock seizure model in mouse (high test concentration). The note with it: po.
In experiment [13] the test system is Mus musculus. The experiment is described as follows: Effective i.p. dose tested for muscle relaxant activity using inclined screen test in mouse (value range= 11.2-16.0 mg/kg). The note with it: ip.

Broadly, the ED50 is the midpoint of the dose-response relation. Lower therefore signals greater potency. Usually IC50 stands for the concentration at which inhibition is half-maximal. Read a high IC50 as lower potency. In the case of `Cc1cn2c(n1)Cc1ccc(Cl)cc1C(c1ccc(N)cc1)=N2`, the ED50 with Mus musculus [1] worked out at 36.5 mg/kg; with Mus musculus [2], 24 mg/kg. Also, in the experiment listed under Gallus gallus [3], the concentration for half-maximal inhibition (IC50) is 7.3 µM.
With `Nc1ccc(C2=Nn3cc(CO)nc3Cc3ccc(Cl)cc32)cc1`, the median effective dose (ED50) in the experiment with Mus musculus [4] came out at 200 mg/kg; in the experiment with Mus musculus [5], 50 mg/kg. This compound also displayed an IC50 in the experiment filed under Gallus gallus [3] of 5 µM.
Usually Inhibition stands for the relative decrease from the control value, in per cent. A lower Inhibition goes with little suppression. Consider `CC(=O)Nc1ccc(C2=Nn3cc(C(=O)O)nc3Cc3ccc(Cl)cc32)cc1`, for which the results for the ED50 in the experiment with Mus musculus [6] and with Mus musculus [7] were over 200 mg/kg and over 100 mg/kg, respectively. In the experiment listed under Gallus gallus [8], this compound had an Inhibition of 33%.
Take `Nc1ccc(C2=Nn3cc(C(=O)O)nc3Cc3ccc(Cl)cc32)cc1`: the results for the ED50 in the experiment with Mus musculus [9] and in the experiment with Mus musculus [6] were over 100 mg/kg and over 200 mg/kg, respectively. Besides, the Inhibition in the experiment listed under Gallus gallus [8] came out at 55%.
Consider `CC(=O)Nc1ccc(C2=Nn3cc(CO)nc3Cc3ccc(Cl)cc32)cc1`, for which the ED50 in the experiment on Mus musculus [10] is over 100 mg/kg.
For the compound `CC(=O)Nc1ccc(C2=Nn3cc(C)nc3Cc3ccc(Cl)cc32)cc1`, the ED50 in the experiment on Mus musculus [6] was over 200 mg/kg; with Mus musculus [11], 56 mg/kg. The IC50 in the experiment listed under Gallus gallus [3] is over 20 µM.
`CCOC(=O)c1cn2c(n1)Cc1ccc(Cl)cc1C(c1ccc(N)cc1)=N2`: the ED50 in the experiment with Mus musculus [12] is over 100 mg/kg; in the experiment with Mus musculus [6] it was over 200 mg/kg. In the experiment listed under Gallus gallus [3], this compound returned an IC50 of 20 µM.
On to `CC(=O)N1N=C(c2ccc(N)cc2)c2cc3c(cc2C[C@H]1C)OCO3` [TALAMPANEL], for which the 50% effect level in the experiment on Mus musculus [13] (ED50) was put at a dose of 13.4 mg/kg.
